According to the kinase profiling compilation of Christmann-Franck et al. (2016):

Legend:
Experiment in all cases: radiometric filter-binding kinase assay
AURKB (human) = AURKB (human) (UniProt Q96GD4)
BRSK2 (human) = BRSK2 (human) (UniProt Q8IWQ3)
CAMKK2 (human) = CAMKK2 (human) (UniProt Q96RR4)
CHEK1 (human) = CHEK1 (human) (UniProt O14757)
CLK2 (human) = CLK2 (human) (UniProt P49760)
CSNK2A1 (human) = CSNK2A1 (human) (UniProt P68400)
CaMK1 (human) = CaMK1 (human) (UniProt Q14012)
DAPK1 (human) = DAPK1 (human) (UniProt P53355)
DYRK1A (human) = DYRK1A (human) (UniProt Q13627)
DYRK3 (human) = DYRK3 (human) (UniProt O43781)
EPHB2 (human) = EPHB2 (human) (UniProt P29323)
FGFR1 (human) = FGFR1 (human) (UniProt P11362)
GCK (human) = GCK (human) (UniProt Q12851)
HIPK1 (human) = HIPK1 (human) (UniProt Q86Z02)
HIPK2 (human) = HIPK2 (human) (UniProt Q9H2X6)
IGF1R (human) = IGF1R (human) (UniProt P08069)
JAK2 JH1 JH2 (human) = JAK2 JH1 JH2 (human) (UniProt O60674)
LCK (mouse) = details: accession and sequence are those of the human protein
MAPK10 (human) = MAPK10 (human) (UniProt P53779)
MAPK11 (human) = MAPK11 (human) (UniProt Q15759)
MAPK13 (human) = MAPK13 (human) (UniProt O15264)
MAPK8 (human) = MAPK8 (human) (UniProt P45983)
MAPKAPK5 (human) = MAPKAPK5 (human) (UniProt Q8IW41)
MARK3 (human) = MARK3 (human) (UniProt P27448)
MINK1 (human) = MINK1 (human) (UniProt Q8N4C8)
MKNK1 (human) = MKNK1 (human) (UniProt Q9BUB5)
[1] = system: PAK2 (human), Q13177 [T402E]
PHKG1 (human) = PHKG1 (human) (UniProt Q16816)
PIM3 (human) = PIM3 (human) (UniProt Q86V86)
ROCK2 (rat) = details: accession and sequence are those of the human protein
[2] = system: SGK1 (human), O00141 [S422D]
SRPK1 (human) = SRPK1 (human) (UniProt Q96SB4)
STK3 (human) = STK3 (human) (UniProt Q13188)
TAOK1 (human) = TAOK1 (human) (UniProt Q7L7X3)
TBK1 (human) = TBK1 (human) (UniProt Q9UHD2)
YES1 (human) = YES1 (human) (UniProt P07947)

Chain of JAK2 JH1 JH2 (human) (O60674 whole entry, looked up): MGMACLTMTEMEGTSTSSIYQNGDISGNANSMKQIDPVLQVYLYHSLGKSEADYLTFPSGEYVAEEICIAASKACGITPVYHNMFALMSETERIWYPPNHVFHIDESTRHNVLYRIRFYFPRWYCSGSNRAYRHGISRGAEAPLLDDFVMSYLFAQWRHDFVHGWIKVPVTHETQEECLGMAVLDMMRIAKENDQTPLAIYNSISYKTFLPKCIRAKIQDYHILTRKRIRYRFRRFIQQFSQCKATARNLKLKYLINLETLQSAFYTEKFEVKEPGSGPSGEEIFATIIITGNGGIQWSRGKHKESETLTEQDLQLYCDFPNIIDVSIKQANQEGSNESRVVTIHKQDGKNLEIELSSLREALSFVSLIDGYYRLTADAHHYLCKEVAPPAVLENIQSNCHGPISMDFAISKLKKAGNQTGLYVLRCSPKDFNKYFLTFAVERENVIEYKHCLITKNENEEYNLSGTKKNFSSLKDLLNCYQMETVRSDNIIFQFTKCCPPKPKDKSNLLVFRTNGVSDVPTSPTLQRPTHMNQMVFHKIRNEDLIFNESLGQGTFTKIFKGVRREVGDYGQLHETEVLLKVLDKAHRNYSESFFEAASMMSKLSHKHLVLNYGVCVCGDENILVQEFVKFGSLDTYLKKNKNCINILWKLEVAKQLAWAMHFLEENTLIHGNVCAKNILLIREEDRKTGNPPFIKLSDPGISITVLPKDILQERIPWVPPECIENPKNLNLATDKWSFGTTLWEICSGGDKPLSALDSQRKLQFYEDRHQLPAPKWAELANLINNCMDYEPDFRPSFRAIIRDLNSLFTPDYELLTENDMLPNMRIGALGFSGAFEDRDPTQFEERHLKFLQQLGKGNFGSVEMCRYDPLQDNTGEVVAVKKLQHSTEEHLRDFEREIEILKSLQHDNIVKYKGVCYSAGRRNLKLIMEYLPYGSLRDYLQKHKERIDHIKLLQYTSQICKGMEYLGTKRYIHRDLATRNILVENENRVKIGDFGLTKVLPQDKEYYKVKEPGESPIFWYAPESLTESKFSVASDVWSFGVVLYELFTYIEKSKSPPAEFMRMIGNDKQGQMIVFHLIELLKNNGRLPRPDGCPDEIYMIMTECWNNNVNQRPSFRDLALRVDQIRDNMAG
Chain of MKNK1 (human) (Q9BUB5 whole entry, looked up): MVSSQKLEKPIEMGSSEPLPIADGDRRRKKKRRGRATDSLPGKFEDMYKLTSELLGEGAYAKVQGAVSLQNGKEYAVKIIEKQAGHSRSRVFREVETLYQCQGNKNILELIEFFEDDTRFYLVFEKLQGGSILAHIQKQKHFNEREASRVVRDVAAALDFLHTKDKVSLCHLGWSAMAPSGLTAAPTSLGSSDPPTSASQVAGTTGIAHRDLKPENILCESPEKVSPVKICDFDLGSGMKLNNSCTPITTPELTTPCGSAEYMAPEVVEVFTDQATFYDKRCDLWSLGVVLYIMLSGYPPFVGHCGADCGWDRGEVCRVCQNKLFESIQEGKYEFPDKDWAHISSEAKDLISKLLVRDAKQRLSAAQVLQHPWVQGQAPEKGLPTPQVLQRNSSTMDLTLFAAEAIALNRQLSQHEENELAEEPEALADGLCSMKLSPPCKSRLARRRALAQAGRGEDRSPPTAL
Chain of TAOK1 (human) (Q7L7X3 whole entry, looked up): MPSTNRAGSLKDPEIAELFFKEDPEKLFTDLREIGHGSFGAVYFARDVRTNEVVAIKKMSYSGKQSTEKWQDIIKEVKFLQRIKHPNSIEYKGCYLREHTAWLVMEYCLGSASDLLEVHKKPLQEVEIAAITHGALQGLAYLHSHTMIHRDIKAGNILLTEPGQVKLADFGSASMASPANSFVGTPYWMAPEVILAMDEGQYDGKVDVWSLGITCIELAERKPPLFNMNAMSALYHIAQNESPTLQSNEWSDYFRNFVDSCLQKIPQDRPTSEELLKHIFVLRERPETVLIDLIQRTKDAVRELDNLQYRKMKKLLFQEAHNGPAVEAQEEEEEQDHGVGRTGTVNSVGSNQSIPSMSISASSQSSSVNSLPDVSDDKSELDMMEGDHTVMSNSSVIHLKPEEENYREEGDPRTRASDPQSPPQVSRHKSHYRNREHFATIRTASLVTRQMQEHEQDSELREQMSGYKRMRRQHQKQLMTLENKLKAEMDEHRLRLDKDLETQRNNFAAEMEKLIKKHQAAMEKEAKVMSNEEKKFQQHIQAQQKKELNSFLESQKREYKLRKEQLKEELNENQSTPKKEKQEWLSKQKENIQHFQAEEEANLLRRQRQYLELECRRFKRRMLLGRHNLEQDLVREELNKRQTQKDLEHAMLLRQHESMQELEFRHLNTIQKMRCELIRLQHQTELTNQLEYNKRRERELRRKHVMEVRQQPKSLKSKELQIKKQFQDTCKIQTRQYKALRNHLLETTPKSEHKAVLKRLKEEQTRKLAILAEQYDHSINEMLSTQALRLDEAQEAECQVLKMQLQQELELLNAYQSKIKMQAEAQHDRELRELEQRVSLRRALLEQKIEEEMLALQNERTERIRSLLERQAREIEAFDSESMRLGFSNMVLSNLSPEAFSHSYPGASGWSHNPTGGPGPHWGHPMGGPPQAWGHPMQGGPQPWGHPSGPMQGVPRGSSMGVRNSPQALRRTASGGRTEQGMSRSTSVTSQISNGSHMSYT
Chain of HIPK2 (human) (Q9H2X6 whole entry, looked up): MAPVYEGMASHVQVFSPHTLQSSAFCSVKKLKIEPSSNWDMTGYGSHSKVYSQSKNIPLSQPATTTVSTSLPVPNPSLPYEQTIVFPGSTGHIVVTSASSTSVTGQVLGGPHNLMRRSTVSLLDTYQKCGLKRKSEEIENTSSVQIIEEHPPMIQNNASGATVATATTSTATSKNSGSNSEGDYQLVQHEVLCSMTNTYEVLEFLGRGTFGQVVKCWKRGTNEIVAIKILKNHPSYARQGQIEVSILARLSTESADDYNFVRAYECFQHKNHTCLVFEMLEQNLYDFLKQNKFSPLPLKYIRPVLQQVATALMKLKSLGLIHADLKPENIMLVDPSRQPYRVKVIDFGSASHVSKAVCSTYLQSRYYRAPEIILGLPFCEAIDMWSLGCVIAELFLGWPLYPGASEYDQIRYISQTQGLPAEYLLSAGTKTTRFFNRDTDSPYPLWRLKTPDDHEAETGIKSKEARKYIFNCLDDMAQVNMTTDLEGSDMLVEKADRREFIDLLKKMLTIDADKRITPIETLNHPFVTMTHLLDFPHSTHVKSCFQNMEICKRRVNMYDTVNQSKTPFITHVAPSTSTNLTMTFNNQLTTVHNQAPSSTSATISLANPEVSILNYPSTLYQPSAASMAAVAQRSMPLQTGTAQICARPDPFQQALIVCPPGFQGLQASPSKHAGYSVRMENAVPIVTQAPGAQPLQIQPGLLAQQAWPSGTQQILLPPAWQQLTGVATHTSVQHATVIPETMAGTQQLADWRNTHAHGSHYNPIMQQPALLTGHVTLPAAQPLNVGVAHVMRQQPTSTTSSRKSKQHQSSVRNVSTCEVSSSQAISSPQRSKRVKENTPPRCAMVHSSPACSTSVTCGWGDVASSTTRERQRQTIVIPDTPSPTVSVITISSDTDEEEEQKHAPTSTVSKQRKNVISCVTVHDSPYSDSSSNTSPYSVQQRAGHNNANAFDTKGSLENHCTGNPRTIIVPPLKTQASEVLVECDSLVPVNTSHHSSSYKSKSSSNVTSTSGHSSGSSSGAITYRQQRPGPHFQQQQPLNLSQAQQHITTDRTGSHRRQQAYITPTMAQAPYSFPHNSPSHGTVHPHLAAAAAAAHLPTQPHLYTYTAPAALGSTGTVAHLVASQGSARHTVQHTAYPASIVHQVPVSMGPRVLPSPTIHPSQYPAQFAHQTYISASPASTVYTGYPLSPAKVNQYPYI
Chain of SGK1 (human), O00141 [S422D] (O00141 whole entry S422D, looked up): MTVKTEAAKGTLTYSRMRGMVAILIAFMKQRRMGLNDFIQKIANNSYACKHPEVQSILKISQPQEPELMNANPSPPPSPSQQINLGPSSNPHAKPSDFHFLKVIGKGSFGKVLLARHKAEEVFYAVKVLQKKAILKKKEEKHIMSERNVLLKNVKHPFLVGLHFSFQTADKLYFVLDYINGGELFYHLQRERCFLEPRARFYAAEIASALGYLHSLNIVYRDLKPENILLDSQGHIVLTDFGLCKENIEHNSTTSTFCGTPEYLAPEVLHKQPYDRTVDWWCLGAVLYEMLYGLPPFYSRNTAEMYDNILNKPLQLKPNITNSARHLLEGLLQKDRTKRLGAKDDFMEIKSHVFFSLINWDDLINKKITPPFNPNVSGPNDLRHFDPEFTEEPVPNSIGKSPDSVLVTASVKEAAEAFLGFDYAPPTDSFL
Chain of FGFR1 (human) (P11362 whole entry, looked up): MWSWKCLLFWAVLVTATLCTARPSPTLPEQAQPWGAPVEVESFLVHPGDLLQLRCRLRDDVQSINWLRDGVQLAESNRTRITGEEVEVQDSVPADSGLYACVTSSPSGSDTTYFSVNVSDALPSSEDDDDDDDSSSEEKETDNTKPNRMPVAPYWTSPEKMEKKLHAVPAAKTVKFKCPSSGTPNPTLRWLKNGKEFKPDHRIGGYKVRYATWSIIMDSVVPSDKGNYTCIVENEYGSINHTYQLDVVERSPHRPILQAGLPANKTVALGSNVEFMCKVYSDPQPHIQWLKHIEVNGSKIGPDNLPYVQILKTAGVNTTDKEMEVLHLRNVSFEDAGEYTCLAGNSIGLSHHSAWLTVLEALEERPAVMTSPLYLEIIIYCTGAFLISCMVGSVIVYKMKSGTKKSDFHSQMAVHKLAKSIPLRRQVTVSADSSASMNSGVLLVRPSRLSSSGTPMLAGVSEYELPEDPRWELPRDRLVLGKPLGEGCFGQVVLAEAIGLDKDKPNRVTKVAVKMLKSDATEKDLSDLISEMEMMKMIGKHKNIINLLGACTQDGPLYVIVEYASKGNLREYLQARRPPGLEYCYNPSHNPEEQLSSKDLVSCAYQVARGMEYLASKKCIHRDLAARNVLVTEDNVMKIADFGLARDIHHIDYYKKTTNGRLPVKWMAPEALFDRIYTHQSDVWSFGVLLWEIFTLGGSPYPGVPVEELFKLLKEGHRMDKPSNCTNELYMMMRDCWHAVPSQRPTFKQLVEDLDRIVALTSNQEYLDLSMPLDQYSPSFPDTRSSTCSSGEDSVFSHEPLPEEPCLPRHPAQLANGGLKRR

## Cc1ccc(=O)n(-c2ccccc2)c1
AURKB (human); compound 1.0 µM
  residual activity: 93%
AURKB (human); compound 10.0 µM
  residual activity: 87%
BRSK2 (human); compound 1.0 µM
  residual activity: 106%
BRSK2 (human); compound 10.0 µM
  residual activity: 96%
CAMKK2 (human); compound 1.0 µM
  residual activity: 97%
CAMKK2 (human); compound 10.0 µM
  residual activity: 108%
CHEK1 (human); compound 1.0 µM
  residual activity: 97%
CHEK1 (human); compound 10.0 µM
  residual activity: 90%
CLK2 (human); compound 1.0 µM
  residual activity: 120%
CLK2 (human); compound 10.0 µM
  residual activity: 112%
CSNK2A1 (human); compound 1.0 µM
  residual activity: 98%
CSNK2A1 (human); compound 10.0 µM
  residual activity: 103%
CaMK1 (human); compound 1.0 µM
  residual activity: 98%
CaMK1 (human); compound 10.0 µM
  residual activity: 81%
DAPK1 (human); compound 1.0 µM
  residual activity: 112%
DAPK1 (human); compound 10.0 µM
  residual activity: 100%
DYRK1A (human); compound 1.0 µM
  residual activity: 103%
DYRK1A (human); compound 10.0 µM
  residual activity: 91%
DYRK3 (human); compound 1.0 µM
  residual activity: 103%
DYRK3 (human); compound 10.0 µM
  residual activity: 93%
EPHB2 (human); compound 1.0 µM
  residual activity: 120%
EPHB2 (human); compound 10.0 µM
  residual activity: 109%
FGFR1 (human); compound 1.0 µM
  residual activity: 101%
GCK (human); compound 1.0 µM
  residual activity: 106%
GCK (human); compound 10.0 µM
  residual activity: 108%
HIPK1 (human); compound 1.0 µM
  residual activity: 118%
HIPK1 (human); compound 10.0 µM
  residual activity: 103%
HIPK2 (human); compound 1.0 µM
  residual activity: 122%
HIPK2 (human); compound 10.0 µM
  residual activity: 106%
IGF1R (human); compound 1.0 µM
  residual activity: 105%
IGF1R (human); compound 10.0 µM
  residual activity: 102%
JAK2 JH1 JH2 (human); compound 1.0 µM
  residual activity: 103%
JAK2 JH1 JH2 (human); compound 10.0 µM
  residual activity: 90%
LCK (mouse); compound 1.0 µM
  residual activity: 96%
LCK (mouse); compound 10.0 µM
  residual activity: 102%
MAPK10 (human); compound 1.0 µM
  residual activity: 83%
MAPK10 (human); compound 10.0 µM
  residual activity: 86%
MAPK11 (human); compound 1.0 µM
  residual activity: 120%
MAPK11 (human); compound 10.0 µM
  residual activity: 111%
MAPK13 (human); compound 1.0 µM
  residual activity: 97%
MAPK13 (human); compound 10.0 µM
  residual activity: 91%
MAPK8 (human); compound 1.0 µM
  residual activity: 85%
MAPK8 (human); compound 10.0 µM
  residual activity: 87%
MAPKAPK5 (human); compound 1.0 µM
  residual activity: 100%
MAPKAPK5 (human); compound 10.0 µM
  residual activity: 95%
MARK3 (human); compound 1.0 µM
  residual activity: 108%
MARK3 (human); compound 10.0 µM
  residual activity: 108%
MINK1 (human); compound 1.0 µM
  residual activity: 106%
MINK1 (human); compound 10.0 µM
  residual activity: 108%
MKNK1 (human); compound 1.0 µM
  residual activity: 101%
MKNK1 (human); compound 10.0 µM
  residual activity: 99%
[1]; compound 1.0 µM
  residual activity: 101%
[1]; compound 10.0 µM
  residual activity: 100%
PHKG1 (human); compound 1.0 µM
  residual activity: 103%
PHKG1 (human); compound 10.0 µM
  residual activity: 96%
PIM3 (human); compound 1.0 µM
  residual activity: 111%
PIM3 (human); compound 10.0 µM
  residual activity: 95%
ROCK2 (rat); compound 1.0 µM
  residual activity: 94%
ROCK2 (rat); compound 10.0 µM
  residual activity: 84%
[2]; compound 1.0 µM
  residual activity: 113%
[2]; compound 10.0 µM
  residual activity: 100%
SRPK1 (human); compound 1.0 µM
  residual activity: 95%
SRPK1 (human); compound 10.0 µM
  residual activity: 89%
STK3 (human); compound 1.0 µM
  residual activity: 112%
STK3 (human); compound 10.0 µM
  residual activity: 112%
TAOK1 (human); compound 1.0 µM
  residual activity: 118%
TAOK1 (human); compound 10.0 µM
  residual activity: 100%
TBK1 (human); compound 1.0 µM
  residual activity: 99%
TBK1 (human); compound 10.0 µM
  residual activity: 91%
YES1 (human); compound 1.0 µM
  residual activity: 118%
YES1 (human); compound 10.0 µM
  residual activity: 109%

## O=c1c(O)c(-c2ccc(O)c(O)c2)oc2cc(O)c(O)c(O)c12
AURKB (human); compound 1.0 µM
  residual activity: 62%
AURKB (human); compound 10.0 µM
  residual activity: 8%
BRSK2 (human); compound 1.0 µM
  residual activity: 71%
BRSK2 (human); compound 10.0 µM
  residual activity: 13%
CAMKK2 (human); compound 1.0 µM
  residual activity: 72%
CAMKK2 (human); compound 10.0 µM
  residual activity: 61%
CHEK1 (human); compound 1.0 µM
  residual activity: 92%
CHEK1 (human); compound 10.0 µM
  residual activity: 32%
CLK2 (human); compound 1.0 µM
  residual activity: 58%
CSNK2A1 (human); compound 1.0 µM
  residual activity: 46%
CSNK2A1 (human); compound 10.0 µM
  residual activity: 7%
CaMK1 (human); compound 1.0 µM
  residual activity: 49%
CaMK1 (human); compound 10.0 µM
  residual activity: 19%
DAPK1 (human); compound 1.0 µM
  residual activity: 95%
DYRK1A (human); compound 1.0 µM
  residual activity: 71%
DYRK1A (human); compound 10.0 µM
  residual activity: 3%
DYRK3 (human); compound 1.0 µM
  residual activity: 59%
DYRK3 (human); compound 10.0 µM
  residual activity: 2%
EPHB2 (human); compound 1.0 µM
  residual activity: 69%
FGFR1 (human); compound 1.0 µM
  residual activity: 27%
FGFR1 (human); compound 10.0 µM
  residual activity: 14%
GCK (human); compound 1.0 µM
  residual activity: 93%
GCK (human); compound 10.0 µM
  residual activity: 23%
HIPK1 (human); compound 1.0 µM
  residual activity: 93%
HIPK1 (human); compound 10.0 µM
  residual activity: 11%
HIPK2 (human); compound 1.0 µM
  residual activity: 62%
HIPK2 (human); compound 10.0 µM
  residual activity: 19%
IGF1R (human); compound 1.0 µM
  residual activity: 96%
IGF1R (human); compound 10.0 µM
  residual activity: 43%
JAK2 JH1 JH2 (human); compound 1.0 µM
  residual activity: 91%
JAK2 JH1 JH2 (human); compound 10.0 µM
  residual activity: 13%
LCK (mouse); compound 1.0 µM
  residual activity: 102%
LCK (mouse); compound 10.0 µM
  residual activity: 95%
MAPK10 (human); compound 1.0 µM
  residual activity: 107%
MAPK10 (human); compound 10.0 µM
  residual activity: 89%
MAPK11 (human); compound 1.0 µM
  residual activity: 101%
MAPK11 (human); compound 10.0 µM
  residual activity: 90%
MAPK13 (human); compound 1.0 µM
  residual activity: 96%
MAPK13 (human); compound 10.0 µM
  residual activity: 97%
MAPK8 (human); compound 1.0 µM
  residual activity: 93%
MAPK8 (human); compound 10.0 µM
  residual activity: 93%
MAPKAPK5 (human); compound 1.0 µM
  residual activity: 87%
MAPKAPK5 (human); compound 10.0 µM
  residual activity: 1%
MARK3 (human); compound 1.0 µM
  residual activity: 51%
MARK3 (human); compound 10.0 µM
  residual activity: 6%
MINK1 (human); compound 1.0 µM
  residual activity: 56%
MINK1 (human); compound 10.0 µM
  residual activity: 10%
MKNK1 (human); compound 1.0 µM
  residual activity: 61%
MKNK1 (human); compound 10.0 µM
  residual activity: 12%
[1]; compound 1.0 µM
  residual activity: 96%
[1]; compound 10.0 µM
  residual activity: 98%
PHKG1 (human); compound 1.0 µM
  residual activity: 98%
PHKG1 (human); compound 10.0 µM
  residual activity: 2%
PIM3 (human); compound 1.0 µM
  residual activity: 34%
PIM3 (human); compound 10.0 µM
  residual activity: 0%
ROCK2 (rat); compound 1.0 µM
  residual activity: 95%
ROCK2 (rat); compound 10.0 µM
  residual activity: 56%
[2]; compound 1.0 µM
  residual activity: 87%
[2]; compound 10.0 µM
  residual activity: 24%
SRPK1 (human); compound 1.0 µM
  residual activity: 55%
SRPK1 (human); compound 10.0 µM
  residual activity: 3%
STK3 (human); compound 1.0 µM
  residual activity: 58%
STK3 (human); compound 10.0 µM
  residual activity: 9%
TAOK1 (human); compound 1.0 µM
  residual activity: 94%
TBK1 (human); compound 1.0 µM
  residual activity: 54%
TBK1 (human); compound 10.0 µM
  residual activity: 64%
YES1 (human); compound 1.0 µM
  residual activity: 42%
YES1 (human); compound 10.0 µM
  residual activity: 9%
